The target in data set [1] is T1, TLR9 (Homo sapiens, UniProt Q9NR96).
T1 sequence (Q9NR96 26-1032): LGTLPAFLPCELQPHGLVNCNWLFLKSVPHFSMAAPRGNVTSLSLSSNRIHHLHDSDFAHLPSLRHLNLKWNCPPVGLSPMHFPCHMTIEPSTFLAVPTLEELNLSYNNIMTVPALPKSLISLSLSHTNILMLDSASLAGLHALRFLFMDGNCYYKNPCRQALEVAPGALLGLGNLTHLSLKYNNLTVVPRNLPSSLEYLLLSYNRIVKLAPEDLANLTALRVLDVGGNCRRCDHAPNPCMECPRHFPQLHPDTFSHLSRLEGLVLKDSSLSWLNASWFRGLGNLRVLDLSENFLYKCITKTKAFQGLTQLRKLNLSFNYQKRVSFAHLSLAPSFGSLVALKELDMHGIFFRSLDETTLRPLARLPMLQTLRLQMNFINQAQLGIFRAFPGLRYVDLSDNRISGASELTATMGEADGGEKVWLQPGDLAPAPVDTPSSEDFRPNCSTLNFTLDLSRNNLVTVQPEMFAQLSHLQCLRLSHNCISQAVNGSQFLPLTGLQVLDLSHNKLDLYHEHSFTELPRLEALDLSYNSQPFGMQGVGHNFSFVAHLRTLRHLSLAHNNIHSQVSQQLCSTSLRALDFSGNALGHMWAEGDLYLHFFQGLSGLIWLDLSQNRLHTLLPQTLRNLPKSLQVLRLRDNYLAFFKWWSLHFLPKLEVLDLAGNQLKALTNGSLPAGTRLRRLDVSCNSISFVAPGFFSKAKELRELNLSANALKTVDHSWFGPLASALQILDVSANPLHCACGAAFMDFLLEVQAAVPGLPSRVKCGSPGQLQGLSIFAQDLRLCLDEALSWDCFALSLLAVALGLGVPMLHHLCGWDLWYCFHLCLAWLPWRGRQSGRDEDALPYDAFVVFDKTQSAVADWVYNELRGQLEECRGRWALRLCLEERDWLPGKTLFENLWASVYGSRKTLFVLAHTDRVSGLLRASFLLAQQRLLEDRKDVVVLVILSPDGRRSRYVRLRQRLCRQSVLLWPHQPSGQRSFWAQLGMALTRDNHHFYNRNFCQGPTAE
Description: Inhibition of TLR9-mediated NF-kB induction activated by CpG ODN2006, luciferase reporter HEK 293 cell line. The data set is classed as cell-based. On the set-up: host or cells: HEK 293 (TLR9/NF-kB luciferase reporter line). As for the experimental part:
SEQ ID NO:1 was next screened for dose responsive inhibition activity to determine the IC50 against TLR9-mediated NF-kB induction at seven different doses (0.1, 1, 5, 10, 25, 50 and 100 μM) in triplicate. Briefly, the TLR9/NF-kB luciferase reporter HEK 293 cell line was plated in 96-well white solid plates at 5×10^4 cells per well for 16 h. Cells were pretreated with different doses of SEQ ID NO:1 in triplicate for 1 h. Cells were then treated with 20 ug/ml of CpG ODN2006 to activate TLR9. After 16 h, luciferase activity was measured and analyzed.
A general note: Reporter assays use an easily measured gene product as a stand-in for the process of interest.

Data set [2] addresses T1, TLR9. As to the kind of experiment: TLR9 activation (agonist) screen, TLR9/NF-kB luciferase reporter HEK 293 cell line. On the set-up: host or cells: HEK 293 (TLR9/NF-kB luciferase reporter line). The data set is classed as cell-based. As to conditions: up to concentrations as high as 100 uM, 16 h treatment. On the procedure:
[…] Briefly, the TLR9/NF-kB luciferase reporter HEK 293 cell line (Abeomics, San Diego, Calif.) was plated in 96-well white solid plates at 5×10^4 cells per well for 16 h. […] Luciferase activity was then measured and analyzed.

The next data set relates to pigmented C57BL/6N mice. Description: Murine model of dry eye by scopolamine administration. The data set is classed as in vivo, Mouse. As to conditions: for Corneal fluorescein staining score (mean ± SD): 5 μL in both eyes, one dose per day. The source says:
In a model of mice, the application of transdermal scopolamine patches to the mid-tail is used to reduce aqueous tear production and thus mimic lacrimal gland insufficiency. The function of scopolamine is to induce a pharmacologic blockade of cholinergic receptors in the lacrimal gland and therefore to decrease aqueous production. The desiccation is amplified by adding environmental stress Animals are exposed to a low-humidity environment and constant airflow.
• Species: Mouse. • Strain: C57BL/6N (pigmented). • Age: Approximately 6-7 weeks (at the first day of induction). • Number/sex: 55 females (study 40; reserve 15).
Mice were treated with transdermal scopolamine administration (0.5 mg/72 h; Scopoderm TTS®). The transdermal scopolamine patch was wrapped near the tail base of the mouse, secured with cellophane tape. Patches were reapplied every 48 hours.
Mice were randomized into 4 groups of 10 animals. The study was divided into 2 experimental sets with 5 animals of each group represented.
All test items, control items and comparator item were instilled in both eyes (5 μL per administration), using a micropipette.
Tear production and corneal defects were assessed at baseline, on Days 3, 6 and 10 using phenol red thread (PRT) and corneal fluorescence staining (CFS), respectively, for each animal of the 4 groups.
A) Measurement of Aqueous Tear Production PRT Test. • Tear production was measured with the PRT test (Zone-Quick, FCI-Ophthalmics) on both eyes, before administration on Day 3 and at least one hour after the second treatment for the other days of the study. The thread was placed in the lateral cantus of the lateral conjunctival fornix for 30 seconds. The thread wet by tears would turn red, indicated aqueous tear production.
B) Corneal Fluorescein Staining (CFS) • At the different time points the measurement was performed before administration on Day 3 and at least one hour after the second treatment for the other days of the study. The eyes of the animals from all groups were examined by slit-lamp observation using blue light after 0.5% fluorescein eye drop instillation (0.5 μL). Punctuate staining was recorded with the standardized National Eye Institute (NEI) grading system giving a 0-3 score to each of the 5 areas in which the corneas were divided. Results: Animal Behaviour and Body Weights

Data set [3] is described as follows: Circular Dichroism (CD) spectroscopy, thermal stability of secondary structure. The data set is classed as physicochemical. The source says: SEQ ID NO:1 was therefore subjected to Circular Dichroism (CD) spectroscopy to gather information about the possible secondary structure. CD of DNA can be utilized to detect all 3 major forms of duplex structure (B, A and Z) and is sensitive to conditions that disrupt the structure such a heating. Of interest was the stability of any secondary structure detected at or above physiologic temperatures. Shown in FIG. 6 is the CD spectra of sample SEQ ID NO:1 in ddH20 at 4 C.
Additional thermal denaturation of the putative duplex was also studied in the presence of Na^+ at concentrations of 50 mM and 150 mM. Sodium fluoride was used as Cl^− ions interfere with the CD spectra in this UV region.
Additional experiments were conducted to test the influence of Mg^++ and polyamines on the stability of the structure.
On the technique in general: Circular dichroism is widely used to follow secondary structure.

Data set [4] deals with T1, TLR9. As to the kind of experiment: Inhibition of TLR-9 activated by E. coli genomic DNA. The data set is classed as cell-based. The conditions noted are these: E. coli genomic DNA as activator of TLR-9. The source says: While the data of FIG. 4 indicate that SEQ ID NO:1 is more likely to form a homodimer than a heterodimer with ODN2006, additional experiments tested the antagonist activity of SEQ ID NO:1 in the presence of E. coli genomic DNA as the activator.

Turning to “alicaforsen (GCCCAAGCTGGCATCCGTCA; chemistry not given here; listed as Homo sapiens) [SEQ ID NO:1]”, the TLR-9 antagonist activity result with TLR9 [1] (ODN2006 as activator) is recorded as “antagonist of TLR-9”. Moreover, in the data set with TLR9 [1] (comparative dose responses, FIG. 3), the “concentrations required for TLR-9 antagonism compared with inhibition of ICAM-1 expression” value is reported as “requires higher concentrations than the inhibition of ICAM-1 expression”. In addition, the “agonist activity (TLR9 activation)” value in the data set with TLR9 [2] is listed as “devoid of agonist activity”. In addition, the “Corneal fluorescein staining score (mean ± SD)” value in the data set with pigmented C57BL/6N mice (Day 6, alicaforsen 1 mM) is 10.5 ± 2.6; in the data set with pigmented C57BL/6N mice (Day 6, alicaforsen 10 mM), 10.8 ± 2.0; in the data set with pigmented C57BL/6N mice (Day 10, alicaforsen 1 mM, listed as ALICAFORSEN), 9.3 ± 3.1; with pigmented C57BL/6N mice (Day 10, alicaforsen 1 mM, listed as alicaforsen), “lower than the Vehicle group”; in the data set with pigmented C57BL/6N mice (Day 10, alicaforsen 10 mM, listed as ALICAFORSEN), 9.7 ± 2.2; in the data set on pigmented C57BL/6N mice (Day 10, alicaforsen 10 mM, listed as alicaforsen), “lower than the Vehicle group”. Further, the clinical tolerability entry in the data set on pigmented C57BL/6N mice (multiple topical administrations, 1 mM and 10 mM) is “clinically well tolerated”. In addition, the “intensity of the 190 nm peak after cooling back” value in data set [3] (50 and 150 mM sodium, samples cooled back to 20° C. after heating) is recorded as “returned to pre-heated levels”. Besides, the “structure retained (intensity of the 190 nm peak) on heating” value in data set [3] (both 50 and 150 mM sodium (sodium fluoride), to 40° C.) is on record as “at least 50%”. Also, the “loss of signal strength of positive CD band at 190 nm” value in data set [3] (in ddH20, heating to 80° C.) was greater than 85%. For the same substance, the “effect of spermine on secondary structure (CD spectra)” value in data set [3] (spermine at 5 mM in the presence of 50 mM Na+) is “completely abolished the secondary structure”. The “antagonist activity in the presence of E. coli genomic DNA as the activator” value with TLR9 [4] is “remained antagonistic”.

The record behind these values is patent publication US11220690B2, “Formulation” (ATLANTIC PHARMACEUTICALS (HOLDINGS) LTD, priority 2017, dated 2022).
